In one assay the target is T1, Human PKK (Homo sapiens, UniProt P03952).
T1 construct: purchased Enzyme Research Laboratories
In words: Inhibition of PKK using an endpoint assay (human PKK). It is filed as biochemical. The note with it: fluorogenic substrate H-Pro-Phe-Arg-AMC, 1 h room temperature, method names human or rat PKK, table does not say which. The method in brief:
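Human PKK inhibition measured in 100 mM Tris, 150 mM NaCl, pH 7.8, 0.1% BSA, 0.05% Tween20, 1% DMSO. Endpoint format: reaction stopped with PPACK II at 1 μM final, fluorescence read at 355 nm excitation/460 nm emission.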

Assay [1] has as its target T2, PKK in kaolin activated human platelet poor plasma (Homo sapiens, UniProt P03952).
T2 construct: Platelet poor plasma (PPP) obtained from human wholeblood; from tissue
In words: Inhibition of PKK in kaolin activated human PPP.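 Note: readout is the rate of fluorogenic substrate cleavage in rfu per min.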 It is filed as biochemical. Conditions: 25-750 μg/mL kaolin, global fit, text b200 calls the values IC90. How it is done: Platelet poor plasma (PPP) obtained from human wholeblood, anticoagulated with Na-Citrate, is incubated with various concentrations of the test compound together with either 25, 75, 250, or 750 μg/mL kaolin in assay buffer for 20 min at 37° C. such that for each kaolin dose used a concentration response is obtained for the test compound.

Our source for the IC50 values is patent US12479827B2, “Heteroaromatic carboxamide derivatives as plasma kallikrein inhibitors” (Boehringer Ingelheim International GmbH, priority 2020, dated 2025).

T2 sequence (P03952 391-638 limits assumed): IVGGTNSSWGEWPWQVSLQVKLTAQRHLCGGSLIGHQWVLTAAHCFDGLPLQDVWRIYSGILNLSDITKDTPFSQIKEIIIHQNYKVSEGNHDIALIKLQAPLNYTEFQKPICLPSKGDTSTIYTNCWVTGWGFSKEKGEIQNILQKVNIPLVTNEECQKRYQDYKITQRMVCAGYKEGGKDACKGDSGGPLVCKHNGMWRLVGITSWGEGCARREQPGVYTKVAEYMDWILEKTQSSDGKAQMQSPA
T2 sequence (P03952 20-390 limits assumed): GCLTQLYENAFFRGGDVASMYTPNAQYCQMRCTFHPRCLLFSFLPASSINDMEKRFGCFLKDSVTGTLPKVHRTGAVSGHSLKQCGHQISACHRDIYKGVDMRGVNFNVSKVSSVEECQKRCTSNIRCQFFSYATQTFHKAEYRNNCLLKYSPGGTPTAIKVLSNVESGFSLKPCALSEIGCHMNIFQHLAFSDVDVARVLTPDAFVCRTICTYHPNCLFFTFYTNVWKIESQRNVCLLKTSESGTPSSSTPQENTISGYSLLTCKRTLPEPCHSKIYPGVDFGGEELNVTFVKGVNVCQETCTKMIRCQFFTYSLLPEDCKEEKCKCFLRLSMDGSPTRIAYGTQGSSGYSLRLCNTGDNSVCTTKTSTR
T1 sequence (P03952 20-390 limits assumed): as above
T1 sequence (P03952 391-638 limits assumed): as the sequence (P03952 391-638 limits assumed) above

`Cc1nc(N2CC3CC3C2)ncc1Cn1cc(C(=O)N[C@@H]2CCc3c2ncn3C)c2cncnc21` (stereo partly drawn) [Example 174, 7-[(2-{3-Azabicyclo[3.1.0]hexan-3-yl}-4-methylpyrimidin-5-yl)methyl]-N-[(4R)-1-methyl-1H,4H,5H,6H-cyclopenta[d]imidazol-4-yl]-7H-pyrrolo[2,3-d]pyrimidine-5-carboxamide]: the IC50 (commonly the concentration that gives 50% inhibition) was 1.9 nM on Human PKK and 1430 nM in assay [1].

In the case of `CCOCc1nc(N2CC3C(C2)C3(F)F)ccc1Cn1cc(C(=O)N[C@@H]2CCc3c2ncn3C)cn1` (stereo partly drawn) [Example 179, 1-[(6-{6,6-Difluoro-3-azabicyclo[3.1.0]hexan-3-yl}-2-(ethoxymethyl)pyridin-3-yl)methyl]-N-[(4R)-1-methyl-1H,4H,5H,6H-cyclopenta[d]imidazol-4-yl]-1H-pyrazole-4-carboxamide], the IC50 on Human PKK came out at 4.2 nM; in assay [1] it was 389 nM.

As to `COCc1nc(N2CC3CC3C2)ccc1Cn1cnc(C(=O)N[C@@H]2CCc3c2ncn3C)c1` (stereo partly drawn) [Example 180, 1-[(6-{3-Azabicyclo[3.1.0]hexan-3-yl}-2-(methoxymethyl)pyridin-3-yl)methyl]-N-[(4R)-1-methyl-1H,4H,5H,6H-cyclopenta[d]imidazol-4-yl]-1H-imidazole-4-carboxamide], the IC50 on Human PKK was 2.6 nM; in assay [1], 207 nM.

On to `Cc1nc(N2CC3CC3C2)ccc1Cc1cc(C(=O)N[C@@H]2CCc3c2ncn3C)co1` (stereo partly drawn) [Example 182, 5-[(6-{3-Azabicyclo[3.1.0]hexan-3-yl}-2-methylpyridin-3-yl)methyl]-N-[(4R)-1-methyl-1H,4H,5H,6H-cyclopenta[d]imidazol-4-yl]furan-3-carboxamide], for which the IC50 stood at 7.1 nM at Human PKK and 6270 nM in assay [1].

In the case of `CCc1nc(N2CC3C(C2)C3(F)F)ccc1Cc1ccc(C(=O)N[C@@H]2CCc3c2ncn3C)s1` (stereo partly drawn) [Example 184, 5-[(6-{6,6-Difluoro-3-azabicyclo[3.1.0]hexan-3-yl}-2-ethylpyridin-3-yl)methyl]-N-[(4R)-1-methyl-1H,4H,5H,6H-cyclopenta[d]imidazol-4-yl]thiophene-2-carboxamide], the IC50 on Human PKK came to 13.5 nM; in assay [1] it was 2310 nM.

Turning to `Cn1cnc2c1CC[C@H]2NC(=O)c1ccc(Cc2ccc(N3CC4C(C3)C4(F)F)nc2CO)s1` (stereo partly drawn) [Example 185, 5-[(6-{6,6-Difluoro-3-azabicyclo[3.1.0]hexan-3-yl}-2-(hydroxymethyl)pyridin-3-yl)methyl]-N-[(4R)-1-methyl-1H,4H,5H,6H-cyclopenta-[d]imidazol-4-yl]thiophene-2-carboxamide], the figures for the IC50 (at Human PKK; in assay [1]) were 10.9 nM and 2270 nM, respectively.

Consider `CCc1nc(N2CC3C(C2)C3(F)F)ccc1Cc1ccc(C(=O)N[C@@H]2CCc3c2ncn3C)o1` (stereo partly drawn) [Example 186, 5-[(6-{6,6-difluoro-3-azabicyclo[3.1.0]hexan-3-yl}-2-ethylpyridin-3-yl)methyl]-N-[(4R)-1-methyl-1H,4H,5H,6H-cyclopenta[d]imidazol-4-yl]furan-2-carboxamide], for which the IC50 on Human PKK was 10.9 nM; in assay [1] it was 236 nM.

In the case of `Cc1nc(N2CC3C(C2)C3(F)F)ccc1Cc1ccc(C(=O)N[C@@H]2CCc3c2ncn3C)s1` (stereo partly drawn) [Example 187, 5-[(6-{6,6-Difluoro-3-azabicyclo[3.1.0]hexan-3-yl}-2-methylpyridin-3-yl)methyl]-N-[(4R)-1-methyl-1H,4H,5H,6H-cyclopenta[d]imidazol-4-yl]thiophene-2-carboxamide], the figures for the IC50 (on Human PKK; in assay [1]) were 12.2 nM and 2450 nM, respectively.

In the case of `Cc1nc(N2CC3C(C2)C3(F)F)ccc1Cc1ncc(C(=O)N[C@@H]2CCc3c2ncn3C)s1` (stereo partly drawn) [Example 188, 2-[(6-{6,6-Difluoro-3-azabicyclo[3.1.0]hexan-3-yl}-2-methylpyridin-3-yl)methyl]-N-[(4R)-1-methyl-1H,4H,5H,6H-cyclopenta[d]imidazol-4-yl]-1,3-thiazole-5-carboxamide], the results for the IC50 (on Human PKK; in assay [1]) were 19.8 nM and 1500 nM, respectively.

In the case of `Cc1cc(N2CC3C(C2)C3(F)F)ccc1Cn1cc(C(=O)N[C@@H]2CCc3c2ncn3C)cn1` (stereo partly drawn) [Example 199, 1-[(4-{6,6-difluoro-3-azabicyclo[3.1.0]hexan-3-yl}-2-methylphenyl)methyl]-N-[(4R)-1-methyl-1H,4H,5H,6H-cyclopenta[d]imidazol-4-yl]-1H-pyrazole-4-carboxamide], the IC50 at Human PKK was 3.1 nM; in assay [1], 808 nM.

`Cn1cnc2c1CC[C@H]2NC(=O)c1cn(Cc2ccc(N3CC4CC4C3)c(C#N)c2F)cn1` (stereo partly drawn) [Example 201, 1-[(4-{3-azabicyclo[3.1.0]hexan-3-yl}-3-cyano-2-fluorophenyl)methyl]-N-[(4R)-1-methyl-1H,4H,5H,6H-cyclopenta[d]imidazol-4-yl]-1H-imidazole-4-carboxamide]: the IC50 against Human PKK stood at 0.6 nM; in assay [1], 130 nM.

`Cn1cnc2c1CC[C@H]2NC(=O)c1cnn(Cc2ccc(N3CC4CC4C3)c(C#N)c2Cl)c1` (stereo partly drawn) [Example 202, 1-[(4-{3-azabicyclo[3.1.0]hexan-3-yl}-2-chloro-3-cyanophenyl)methyl]-N-[(4R)-1-methyl-1H,4H,5H,6H-cyclopenta[d]imidazol-4-yl]-1H-pyrazole-4-carboxamide]: the figures for the IC50 (against Human PKK; in assay [1]) were 0.5 nM and 157 nM, respectively.

With `Cn1cnc2c1CC[C@H]2NC(=O)c1cn(Cc2ccc(N3CC4CC4C3)c(C#N)c2Cl)cn1` (stereo partly drawn) [Example 203, 1-[(4-{3-azabicyclo[3.1.0]hexan-3-yl}-2-chloro-3-cyanophenyl)methyl]-N-[(4R)-1-methyl-1H,4H,5H,6H-cyclopenta[d]imidazol-4-yl]-1H-imidazole-4-carboxamide], the figures for the IC50 (on Human PKK; in assay [1]) were 0.7 nM and 202 nM, respectively.

Regarding `Cn1cnc2c1CC[C@H]2NC(=O)c1cn(Cc2ccc(N3CC4CC4C3)cc2Br)cn1` (stereo partly drawn) [Example 204, 1-[(4-{3-azabicyclo[3.1.0]hexan-3-yl}-2-bromophenyl)methyl]-N-[(4R)-1-methyl-1H,4H,5H,6H-cyclopenta[d]imidazol-4-yl]-1H-imidazole-4-carboxamide], the IC50 at Human PKK came to 1.5 nM; in assay [1], 818 nM.

For the compound `Cn1cnc2c1CC[C@H]2NC(=O)c1cn(Cc2ccc(N3CC4CC4C3)cc2C#N)cn1` (stereo partly drawn) [Example 206, 1-[(4-{3-azabicyclo[3.1.0]hexan-3-yl}-2-cyanophenyl)methyl]-N-[(4R)-1-methyl-1H,4H,5H,6H-cyclopenta[d]imidazol-4-yl]-1H-imidazole-4-carboxamide], the IC50 was 0.4 nM against Human PKK and 138 nM in assay [1].

As for `Cn1cnc2c1CC[C@H]2NC(=O)c1cn(Cc2ccc(N3CC4CC4C3)cc2CO)cn1` (stereo partly drawn) [Example 207, 1-[(4-{3-azabicyclo[3.1.0]hexan-3-yl}-2-(hydroxymethyl)phenyl)methyl]-N-[(4R)-1-methyl-1H,4H,5H,6H-cyclopenta[d]imidazol-4-yl]-1H-imidazole-4-carboxamide], the IC50 against Human PKK is 3.2 nM; in assay [1] it was 745 nM.

As to `Cn1cnc2c1CC[C@H]2NC(=O)c1cnn(Cc2ccc(N3CC4C(C3)C4(F)F)cc2C#N)c1` (stereo partly drawn) [Example 208, 1-[(2-cyano-4-{6,6-difluoro-3-azabicyclo-[3.1.0]hexan-3-yl}phenyl)methyl]-N-[(4R)-1-methyl-1H,4H,5H,6H-cyclopenta[d]imidazol-4-yl]-1H-pyrazole-4-carboxamide], the IC50 against Human PKK came out at 0.6 nM; in assay [1], 80 nM.

In the case of `Cn1cnc2c1CC[C@H]2NC(=O)c1cnn(Cc2ccc(N3CC4C(C3)C4(F)F)cc2Br)c1` (stereo partly drawn) [Example 209, 1-[(2-bromo-4-{6,6-difluoro-3-azabicyclo-[3.1.0]hexan-3-yl}phenyl)methyl]-N-[(4R)-1-methyl-1H,4H,5H,6H-cyclopenta[d]imidazol-4-yl]-1H-pyrazole-4-carboxamide], the IC50 was determined as 1.5 nM against Human PKK and 432 nM in assay [1].

With `Cn1cnc2c1CC[C@H]2NC(=O)c1cn(Cc2ccc(N3CC4C(C3)C4(F)F)cc2C#N)cn1` (stereo partly drawn) [Example 210, 1-[(2-cyano-4-{6,6-difluoro-3-azabicyclo-[3.1.0]hexan-3-yl}phenyl)methyl]-N-[(4R)-1-methyl-1H,4H,5H,6H-cyclopenta[d]imidazol-4-yl]-1H-imidazole-4-carboxamide], the IC50 at Human PKK worked out at 0.4 nM; in assay [1], 128 nM.

For the compound `Cn1cnc2c1CC[C@H]2NC(=O)c1cn(Cc2ccc(N3CC4C(C3)C4(F)F)cc2Cl)cn1` (stereo partly drawn) [Example 211, 1-[(2-chloro-4-{6,6-difluoro-3-azabicyclo-[3.1.0]hexan-3-yl}phenyl)methyl]-N-[(4R)-1-methyl-1H,4H,5H,6H-cyclopenta[d]imidazol-4-yl]-1H-imidazole-4-carboxamide], the IC50 stood at 0.8 nM on Human PKK and 590 nM in assay [1].

Turning to `Cn1cnc2c1CC[C@H]2NC(=O)c1cn(Cc2ccc(N3CC4C(C3)C4(F)F)cc2F)cn1` (stereo partly drawn) [Example 212, 1-[(4-{6,6-difluoro-3-azabicyclo[3.1.0]hexan-3-yl}-2-fluorophenyl)methyl]-N-[(4R)-1-methyl-1H,4H,5H,6H-cyclopenta[d]imidazol-4-yl]-1H-imidazole-4-carboxamide], the IC50 at Human PKK amounted to 2.1 nM; in assay [1] it was 1890 nM.

As to `Cn1cnc2c1CC[C@H]2NC(=O)c1cnn(Cc2ccc(N3CC4C(C3)C4(F)F)cc2F)c1` (stereo partly drawn) [Example 213, 1-[(4-{6,6-difluoro-3-azabicyclo[3.1.0]hexan-3-yl}-2-fluorophenyl)methyl]-N-[(4R)-1-methyl-1H,4H,5H,6H-cyclopenta[d]imidazol-4-yl]-1H-pyrazole-4-carboxamide], the IC50 against Human PKK was determined as 2.3 nM; in assay [1], 621 nM.
